Experimental findings from US10035810B2, “5,6-dihydro-4H-benzo[b]thieno-[2,3-d]azepine derivative” (PULMOCIDE LIMITED, priority 2014, dated 2018) are described below.

Each structure is given as a SMILES string.

For assay [1], the system named is RSV NS-1 gene transcripts. Nature of the assay: RSV infection in cotton rats: RSV NS-1 gene transcript in lung (qRT-PCR). The assay is classed as in vivo, cotton rats (Sigmodon hispidus). Particulars: infected cotton rats. Here is the method:
RSV Infection in Cotton Rats
Male Sigmodon hispidus cotton rats between 6 and 8 weeks of age were infected with hRSV/A/Long (ATCC, Manassas, Va.; 10^5 pfu) in a volume of 0.1 mL of sucrose stabilizing media. Compound (I) was dissolved in 100% DMSO (at 3.3, 10, 33 and 100 mg/mL), then diluted at 1:10 in isotonic saline to achieve 10% DMSO in all treatments. Formulations were then sonicated to produce suspensions. The resulting suspensions were administered intranasally (50 μL) by pipette 4 hr before infection (on day 0), and then on days 1, 2 and 3 post infection. Four days after RSV challenge, the animals were euthanised and the lungs were removed. The left lobe was used for viral titration via plaque assay and the lingular lobe for RSV/A/Long NS-1 qRT-PCR and cytokine qRT-PCR.
Total RNA was also extracted from homogenized lung tissue (RNeasy purification kit; Qiagen) and a sample (1 μg) was used to prepare cDNA using QuantiTect Reverse Transcription Kit (Qiagen). For real-time PCR reactions (RSV NS-1 and RANTES genes) the QuantiFast SYBR® Green PCR Kit (Qiagen) was used in a final volume of 25 μL, with final primer concentrations of 0.5 μM. […] Baseline cycles and cycle threshold (Ct) were calculated by the iQ5 software in the PCR Base Line Subtracted Curve Fit mode. […] The mRNA levels were expressed as the geometric mean±SEM for all animals in a group.

In the next assay the test system is RSV B Washington strain. Nature of the assay: RSV B-induced CPE in HEp2 cells. The assay is classed as cell-based. Particulars: human respiratory syncytial virus. Here is the method: Assessment of RSV Induced CPE in HEp2 Cells
HEp2 cells were seeded (10^3/well/50 μL) in 384-well plates (Catalogue number 353962, BD Falcon, Oxford, UK) in […] containing 2 mM L-glutamine and 1 mM sodium pyruvate one day before infection. RSV A2 strain (#0709161v, NCPV, Public Health England, Wiltshire) or RSV B Washington strain (VR-1580, ATCC, Manassas, Va. 20108) virus solutions were prepared in serum free-DMEM with 2 mM L-glutamine and 1 mM sodium pyruvate, and then added (50 μL/well) to achieve a final virus concentration of 1 MOI. Simultaneously Compound (I) (0.5 μL DMSO solution) was added to 100 μL of HEp2 cell culture with virus solution to provide a final DMSO solution of 0.5%. Plates were incubated (37° C./5% CO2) for 5 days for studies using RSV A2 strain or 6 days for those using RSV B strain, and then resazurin sodium salt (5 μL of 0.03% solution; Sigma-Aldrich, Dorset, UK) was added to each well and the plate incubated for a further 6 hr (37° C./5% CO2). The fluorescence of each well [545 nm (excitation)/590 nm (emission)] was determined using a multi-scanner (Clariostar: BMG, Buckinghamshire, UK). The percentage inhibition for each well was calculated and the IC50, IC75 and IC90 values were calculated from the concentration-response curve generated for Compound (I).

The subject of the next assay is RSV A2. Nature of the assay: RSV infection in mice: virus titre in lung homogenate (plaque assay). It is filed as in vivo, mice (male BALB/C). Particulars: RSV A2 infected mice. The protocol: Non-fasted mice (male BALB/C, 20-30 g) were infected intranasally with RSV A2 or virus diluent (DMEM, 2% FBS, 12.5% sucrose) under isoflurane (5% in O2) anaesthesia. The A2 strain of RSV (50 uL of 1.3×10^6 PFU/mL: final 0.65×10^5 PFU/mouse) was instilled into each nostril in a drop wise fashion alternating between the two until a volume of 50 μL was delivered. Following infection each animal was weighed on a daily basis to monitor changes. Compound (I) was dissolved in 100% DMSO (at 20 mg/mL and/or 2 mg/mL), then diluted at 1:10 in isotonic saline to achieve 10% DMSO in all treatments. Formulations were then sonicated to produce a suspension. The suspension was administered intratracheally (20 μL) with a FMJ-250 PennCentury device or intranasally (40 μL) with a pipette on 1 day and 1 hr before infection (day 0), and then on days 1, 2 and 3 post infection. Four days after RSV challenge, the animals were euthanised (by intraperitoneal injection of a pentobarbitone overdose), the trachea cannulated and BALF extracted for total and differential cell counts. […]
Anti-RSV F-protein antibody [2F7] […] Plaques were counted by eye and confirmed using light microscopy, allowing the calculation of plaque forming units per mL of lung homogenate supernatant.

In the case of `Cc1cnc(N2CC3(CCOCC3)C2)c(C(=O)Nc2ccc(C(=O)N3CCc4cc(C(=O)Nc5c(C)cccc5F)sc4-c4ccccc43)cc2)c1` [Compound (I), N-(2-fluoro-6-methylphenyl)-6-(4-(5-methyl-2-(7-oxa-2-azaspiro[3.5]nonan-2-yl)nicotinamido)benzoyl)-5,6-dihydro-4H-benzo[b]thieno[2,3-d]azepine-2-carboxamide], the “RSV NS-1 gene transcripts in lung (in words)” value in assay [1] is reported as “dose-dependent inhibition of RSV NS-1 gene transcripts”. The compound further yielded an IC50 with RSV B Washington strain (HEp-2, 144 h, 1 MOI, 6 days) of 10.2 nM. In the assay on RSV B Washington strain (HEp-2, at 1 μg/mL), this compound returned an inhibition at 1 µg/mL of 72%. Also, the “Virus titre in the lungs (in words)” value in the assay on RSV A2 is reported as “completely inhibited virus titre”. The “Viral titre in lung homogenates (in words)” value with RSV A2 (intranasally or intratracheally) was “potent dose-dependent inhibition of viral titre”.
